Experimental findings from patent publication US20220185764A1, “Resveratrol derivative and anti-fibrotic method using the same” (TAIZHOU HUAYUAN MEDICINAL TECH CO. LTD., priority 2020, published 2022) are described below.

Data set [1] deals with CCl4 induced liver fibrosis in rats. In words: Evaluation of anti-liver fibrosis in vivo (CCl4 induced liver injury/fibrosis). The arrangement: species or system SD rats. The following applies: test compound 10 mg/ml, 0.5 ml/100 g intragastric 1 time/day, 8 weeks; for GSH-PX / HYP / MDA / SOD: liver tissue, ELISA kit, CCl4 rats; for ALP / ALT / AST / LDH: serum, male SD rats, 40% CCl4 oil i.p. 1 time/3 days. How it is done:
CCl4 was prepared into a 40% CCl4 oil with commercially available non-genetically modified peanut oil. The test compound was prepared into a 10 mg/ml solution with a 0.5% sodium carboxymethyl cellulose solution, for later use.
Adult male SD rats were randomly divided into a normal control group, a model group and a drug treatment group. The rats in the normal control group were intraperitoneally injected with peanut oil (0.3 ml/100 g, 1 time/3 days), and intragastrically administrated with 0.5% sodium carboxymethyl cellulose solution (0.5 ml/100 g, 1 time/1 day). The rats in the model group were intraperitoneally injected with 40% CCl4 oil (0.3 ml/100 g, 1 time/3 days), and intragastrically administrated with 0.5% sodium carboxymethyl cellulose solution (0.5 ml/100 g, 1 time/day). The rats in the drug treatment group were intraperitoneally injected with 40% CCl4 oil (0.3ml/100 g, 1 time/3 days), and intragastrically administrated with the 0.5% sodium carboxymethyl cellulose solution of the test compound (0.5 ml/100 g, 1 time/day). Rats in each group were bred in an air-conditioned animal laboratory with a temperature of (23±1)° C. and a relative humidity of (45±5)%, with day and night alternating every 12 hours, and they were free to eat and drink.
After being fed for 8 weeks, all the rats were fasted for 12 hours. After anesthesia, the blood of the rat was collected from the femoral artery, and the whole liver tissue was quickly weighed and frozen in liquid nitrogen for later use. 3 rats in each group were taken and their livers were cut, soaked into formalin solution for 24 h and prepared to paraffin-embedded pathological sections. The whole blood of the rats was centrifuged at 3000 r/min for 10min to obtain the separated serum, which was then frozen and stored for later use.
Alanine aminotransferase (ALT), aspartate aminotransferase (AST), alkaline phosphatase (ALP), and lactate dehydrogenase (LDH) in the serum were measured by Hitachi 7600 automatic biochemical analyzer.
The concentration of hydroxyproline (HYP) or malondialdehyde (MDA), and the activity of superoxide dismutase (SOD) or glutathione peroxidase(GSH-Px) in liver tissues were detected according to the corresponding operation steps of ELISA kit (Nanjing Jiancheng Biological Company).

For data set [2], the system named is bleomycin-induced pulmonary fibrosis in rats. In words: Evaluation of anti-pulmonary fibrosis in vivo (bleomycin-induced). The arrangement: species or system SD rats. The following applies: lung tissue, 14th day. How it is done: Bleomycin (batch number: 16037911, Hisun Pfizer Co., Ltd.) was prepared into a 5 mg/mL solution with normal saline; and the test compound was prepared into a solution with a 0.5% sodium carboxymethyl cellulose solution to a certain concentration for later use.
Adult male SD rats were randomly divided into a normal control group, a model group and a drug treatment group. After the animals in each group were anesthetized by intraperitoneal injection of 20% urethane (10 mL/kg), they were incised in the middle of the neck to expose the trachea. The rats in the normal control group were injected with 0.2 ml normal saline into the trachea all at once, and intragastrically administrated with 0.5% sodium carboxymethyl cellulose solution (0.5 ml/100 g, 1 time/day) the next day. The rats in the model group were injected with 0.2 ml of bleomycin solution into the trachea all at once, and simultaneously intragastrically administrated with 0.5% sodium carboxymethyl cellulose solution (0.5 ml/100 g, 1 time/day). The rats in the drug treatment group were injected with 0.2 ml bleomycin solution into the trachea all at once and simultaneously intragastrically administrated with the 0.5% sodium carboxymethyl cellulose solution of the test compound at different concentrations (0.5 ml/100 g, 1 time/day). The rats in each group were bred in an air-conditioned animal laboratory with a temperature of (23±1)° C. and a relative humidity of (45±5)%, with day and night alternating every 12 hours, and they were free to eat and drink. The rats were fasted for 12 hours on the 14th day after administration. After anesthesia, the blood of the rat was collected from the femoral artery and the lung tissue was separated. The right lung was perfused with 10% neutral formaldehyde through the trachea and then was put into stationary liquid for fixation and pathological examination. The left lung was cryopreserved in a refrigerator at -80° C. for testing the biochemical indicators.
The contents of HYP, MDA, GSH and SOD in lung tissues were detected according to the corresponding operation steps of ELISA kit (Nanjing Jiancheng Biological Company).

A further data set has as its system liver function in mice. In words: Evaluation of subacute toxicity (continuous administration, liver function). The format is in vivo. The arrangement: AST / ALP: unit not given here. The following applies: serum; male ICR mice, 200 mg/kg intragastric once a day for 4 consecutive weeks. How it is done: Male ICR mice aged 6-8 weeks were fasted for 16 hours and randomly divided into groups, 5 mice per group. The test compound was formulated into a suspension with a 0.5% sodium carboxymethyl cellulose solution, and administered intragastrically at a concentration of 200 mg/kg, once a day for 4 consecutive weeks. After the last administration, the mice were fasted for 12 hours but were free to drink water during the fasting period. Then the mice were anesthetized. Blood was taken from the abdominal aorta and serum was prepared for the determination of blood biochemical and immunological indicators. EDTA anticoagulant blood was prepared for routine blood measurement. Except for some significant increase in transaminase (ALT, AST, […]) of some drug administration groups, there were no significant differences in other indicators among the groups.

[3] abbreviates: dose 100 mg/kg intragastric 1 time/day.
[4] abbreviates: dose 50 mg/kg intragastric 1 time/day.

As for `Oc1ccc(C=Cc2cc(O)cc(O)c2)cc1` [Resveratrol], in data set [1], the GSH-PX is reported as 174.33 ± 40.75 U/mg protein, the HYP is 0.93 ± 0.15 μg/mg protein, the MDA worked out at 1.17 ± 0.35 nmol/mg protein and the SOD amounted to 28.09 ± 4.55 U/mg protein. In data set [1], this compound yielded an ALP of 203.6 ± 43.9 U/L, an ALT of 96.8 ± 41.9 U/L, an AST of 205.33 ± 85.3 U/L and an LDH of 846.5 ± 261.2 U/L. In data set [2] (setting [3]), the HYP amounted to 0.75 ± 0.34 μg/mg protein and the MDA turned out to be 0.92 ± 0.33 nmol/mg protein.
For the compound `[2H]C([2H])([2H])Oc1ccc(/C=C/c2cc(OC)cc(OCCCC(C)(C)C(=O)O)c2)cc1` [Compound I-3b, 3-methoxy-4′-trideuterated methoxy-5-(4-methyl-4-carboxypentyloxy)-(E)-stilbene], in data set [1], the GSH-PX is recorded as 194.09 ± 32.82 U/mg protein, the HYP is 0.70 ± 0.61 μg/mg protein, the MDA turned out to be 0.92 ± 0.43 nmol/mg protein and the SOD is on record as 31.33 ± 6.50 U/mg protein. Also, in data set [1], the ALP is recorded as 154.3 ± 65.0 U/L, the ALT worked out at 79.9 ± 43.8 U/L, the AST amounted to 221.9 ± 109.4 U/L and the LDH is 780.4 ± 152.3 U/L. In the data set on liver function in mice, the ALP was determined as 381.67 ± 221.42, the ALT is listed as 36.57 ± 10.40 U/L and the AST is listed as 138.32 ± 29.72. In addition, in data set [2] (setting [4]), the HYP was determined as 0.51 ± 0.09 μg/mg protein and the MDA came out at 0.81 ± 0.09 nmol/mg protein. For the same compound, in data set [2] (setting [3]), the HYP is given as 0.47 ± 0.10 μg/mg protein and the MDA is given as 0.73 ± 0.06 nmol/mg protein.
For the compound `COc1ccc(/C=C/c2cc(OC)cc(OCCCC(C)(C)C(=O)O)c2)cc1` [Compound I-1b, 3,4′-dimethoxy-5-(4-methyl-4-carboxypentyloxy)-(E)-stilbene], in data set [1], the GSH-PX is given as 204.78 ± 27.75 U/mg protein, the HYP is on record as 0.59 ± 0.06 μg/mg protein, the MDA worked out at 0.72 ± 0.12 nmol/mg protein and the SOD amounted to 29.99 ± 5.24 U/mg protein. In data set [1], this compound returned an ALP of 149.9 ± 52.9 U/L, an ALT of 85.3 ± 46.4 U/L, an AST of 209.1 ± 63.2 U/L and an LDH of 843.1 ± 247.9 U/L. Moreover, in the data set with liver function in mice, the ALP is 471.35 ± 29.88, the ALT was 47.33 ± 10.61 U/L and the AST stood at 161.6 ± 18.32. In addition, in data set [2] (setting [4]), the HYP is recorded as 0.71 ± 0.17 μg/mg protein and the MDA amounted to 0.91 ± 0.05 nmol/mg protein. Further, in data set [2] (setting [3]), the HYP worked out at 0.54 ± 0.12 μg/mg protein and the MDA is recorded as 0.84 ± 0.09 nmol/mg protein.
In data set [1], `[2H]C([2H])([2H])Oc1ccc(/C=C/c2cc(OCCCC(C)(C)C(=O)O)cc(OC([2H])([2H])[2H])c2)cc1` [Compound I-2b, 3,4′-bis-[(trideuteratedmethyl)-oxy]-5-(4-methyl-4-carboxypentyloxy)-(E)-stilbene] showed a GSH-PX of 231.48 ± 58.72 U/mg protein, an HYP of 0.58 ± 0.29 μg/mg protein, an MDA of 0.70 ± 0.08 nmol/mg protein and an SOD of 33.60 ± 7.64 U/mg protein. In data set [1], the ALP was 141.6 ± 27.6 U/L, the ALT amounted to 69.1 ± 23.3 U/L, the AST is recorded as 192.4 ± 78.4 U/L and the LDH came to 836.5 ± 375.5 U/L. Also, in the data set on liver function in mice, the ALP was 242.83 ± 83.29, the ALT is recorded as 26.47 ± 6.79 U/L and the AST is recorded as 105.33 ± 16.85. In addition, in data set [2] (setting [4]), the HYP stood at 0.52 ± 0.11 μg/mg protein and the MDA is recorded as 0.75 ± 0.13 nmol/mg protein. In data set [2] (setting [3]), this compound returned an HYP of 0.45 ± 0.08 μg/mg protein and an MDA of 0.76 ± 0.06 nmol/mg protein.
With `[2H]C([2H])([2H])Oc1cc(/C=C/c2ccc(OC)cc2)cc(OCCCC(C)(C)C(=O)O)c1` [Compound I-4b, 3-trideuterated methoxy-4′-methoxy-5-(4-methyl-4-carboxypentyloxy)-(E)-stilbene], in data set [1], the GSH-PX turned out to be 224.33 ± 2.16 U/mg protein, the HYP amounted to 0.68 ± 0.27 μg/mg protein, the MDA came to 0.77 ± 0.14 nmol/mg protein and the SOD worked out at 28.64 ± 6.33 U/mg protein. In data set [1], this compound had an ALP of 140.8 ± 60.2 U/L, an ALT of 91.3 ± 32.5 U/L, an AST of 233.5 ± 90.6 U/L and an LDH of 771.1 ± 210.2 U/L. In the data set on liver function in mice, this compound had an ALP of 258.33 ± 219.45, an ALT of 16.07 ± 2.45 U/L and an AST of 72.73 ± 15.82. Moreover, in data set [2] (setting [4]), the HYP is recorded as 0.74 ± 0.19 μg/mg protein and the MDA turned out to be 0.96 ± 0.19 nmol/mg protein. Further, in data set [2] (setting [3]), the HYP is on record as 0.59 ± 0.12 μg/mg protein and the MDA is listed as 0.78 ± 0.24 nmol/mg protein.
